Data: patent US4423076A, “1-Branched-alkyl-3-(2-haloethyl)-3-nitrosoureas as novel antitumor agents” (National Foundation for Cancer Research, Inc., priority 1979, dated 1983)

How the values were obtained:
[1] = Chemical stability of isocyanates; assay type: physicochemical; conditions: for half-life: physiological pH and temperature; for stability (hydrolysis): water-acetone (1:3), 57° C., three-day period, pH 6.0
Procedure: Both have half-lives of greater than 30 minutes at physiological pH and temperature.

Solubility = assay type: physicochemical; conditions: prevented its clinical evaluation
[2] = test system: murine leukemia P388 tumor cells; test: Single-dose treatment against two-day murine leukemia P388 (increase in median lifespan); assay type: in vivo, CDF1 mice
Procedure: (§1) A single dose of 1-neopentyl-3-(2-chloroethyl)-3-nitrosourea (NCNU) was injected intraperitoneally (ip) in CDF1 mice which had been implanted ip two days earlier with approximately 10×10^5 murine leukemia L1210 tumor cells. The NCNU was dissolved in emulphor EL-620 (polyoxyethylated; GAF Corporation, New York, N.Y.) and raised to the desired volume with 0.85% sodium chloride.
The study of Experiment I was conducted using approximately 5×10^5 murine leukemia P388 tumor cells (0.1 ml of a 1:100 dilution).
(§2) Effects of Single-Dose Treatment with NCNU Against
Two-Day Murine Leukemia P388
(§3) experiments are continuing.

[3] = test system: Yancey's lymphocytic leukemia (YLL); test: Single-dose treatment against two-day Yancey's lymphocytic leukemia (increase in median life span); assay type: in vivo, mouse
Procedure: (§4) The effect of NCNU was tested against Yancey's lymphocytic leukemia (YLL) which had been implanted subcutaneously (sc) two days before injection of the drug. The single injection of 0.1 ml of a solution of one spleen of a YLL bearing mouse homogenized in 10 ml Locke's Solution was given either intraperitoneally or subcutaneously.
as §2
Two-Day Yancey's Lymphocytic Leukemia
as §3

[4] = test system: murine leukemia L1210 tumor cells; test: Single-dose treatment against two-day murine leukemia L1210 (increase in median lifespan); assay type: in vivo, CDF1 mice
Procedure: as §1, §2
Two-Day Murine Leukemia L1210
as §3

[5] = test system: Yancey's lymphocytic leukemia (YLL); test: NCNU against Yancey's lymphocytic leukemia, treatment begun day 2 or 7, several schedules; assay type: in vivo, mouse
Procedure: as §4
The study of Experiment III was conducted with NCNU treatment beginning at 2 or 7 days after implantation of YLL tumors. NCNU injection was ip or sc on a schedule of one time per week for 4 weeks, twice per week for 4 weeks, or a single dose.
Effects of NCNU Against Yancey's
as §3

various forms of cancer = test: Human studies, patients having advanced stages of various forms of cancer; assay type: in vivo; conditions: two 25 mg/kg sc doses or iv, total 50 mg/kg daily
Procedure: Patients having advanced stages of various forms of cancer are treated by subcutaneous injection of two 25 mg/kg doses of NCNU in water or by intravenous administration of 1 milligram NCNU/ml 0.9% saline to provide a total daily dose of 50 mg/kg; a full clinical examination is carried out prior to and after administration. Tumor growth is measured where possible by palpition, X-rays and photography.

[6] = Toxicity of single-dose NCNU ip in normal mice (deaths); design: species or system CDFl mice; conditions: in vivo; for mortality at 192 h: at day 8; for mortality at 24 h: at day 1; for mortality at 216 h: at day 9
Procedure: Toxicity studies were conducted by injecting a single dose of NCNU ip.
Toxicity of NCNU in CDFl Normal Mice

CC(C)(C)CCN=C=O [neohexyl isocyanate]
half-life [1]: > 30 min
stability (hydrolysis) [1]: remarkably stable

CC(C)(C)CNC(=O)N(CC(C)(C)C)N=O
solubility (Solubility): limited solubility

CC(C)(C)CNC(=O)N(CCCl)N=O [NCNU, 1-neopentyl-3-(2-chloroethyl)-3-nitrosourea]
% ILS ([2]; 0.5 mg/mouse): 41.5%
% ILS ([2]; 1.0 mg/mouse): 91.7%
% ILS ([2]; 2.0 mg/mouse, + = animals not yet all died): ≥ 483%
% ILS ([3]; 0.5 mg/mouse ip, single dose (first entry)): 14.3%
% ILS ([3]; 0.5 mg/mouse ip, single dose (second entry)): 6.7%
% ILS ([3]; 0.5 mg/mouse sc, single dose (first entry)): 35.7%
% ILS ([3]; 0.5 mg/mouse sc, single dose (second entry)): 13.3%
% ILS ([3]; 1.0 mg/mouse ip, single dose (first entry)): 64.3%
% ILS ([3]; 1.0 mg/mouse ip, single dose (second entry)): 33.3%
% ILS ([3]; 1.0 mg/mouse sc, single dose (first entry)): 64.3%
% ILS ([3]; 1.0 mg/mouse sc, single dose (second entry)): 20.0%
% ILS ([3]; 2.0 mg/mouse ip, single dose, + = animals not yet all died): ≥ 264%
% ILS ([3]; 2.0 mg/mouse sc, single dose): 78.0%
% ILS ([3]; 25 mg/kg ip, single dose): 13.3%
% ILS ([3]; 25 mg/kg sc, single dose): 6.6%
% ILS ([3]; 50 mg/kg ip, single dose): 60.0%
% ILS ([3]; 50 mg/kg sc, single dose): 60.0%
% ILS ([3]; 75 mg/kg ip, single dose): 66.6%
% ILS ([3]; 75 mg/kg sc, single dose): 73.3%
% ILS (increase in median lifespan) ([4]; 25 mg/kg ip): 37.5%
% ILS (increase in median lifespan) ([4]; 50 mg/kg ip): 100%
% ILS (increase in median lifespan) ([4]; 75 mg/kg ip, + = animals not yet all died): ≥ 275%
% ILS (increase in median lifespan) ([4]; 100 mg/kg ip, + = animals not yet all died): ≥ 275%
% ILS ([5]; 0.5 mg/mouse ip, 1x/wk for 4 wks, begun day 2): 28.6%
% ILS ([5]; 0.5 mg/mouse ip, once, begun day 7): 6.7%
% ILS ([5]; 0.5 mg/mouse sc, 1x/wk for 4 wks, begun day 2, + = animals not yet all died): ≥ 114.3%
% ILS ([5]; 0.5 mg/mouse sc, once, begun day 7): 6.7%
% ILS ([5]; 1.0 mg/mouse ip, 1x/wk for 4 wks, begun day 2): 178.6%
% ILS ([5]; 1.0 mg/mouse ip, once, begun day 7): 66.6%
% ILS ([5]; 1.0 mg/mouse sc, 1x/wk for 4 wks, begun day 2, + = animals not yet all died): ≥ 207.1%
% ILS ([5]; 1.0 mg/mouse sc, once, begun day 7): 66.6%
% ILS ([5]; 2.0 mg/mouse ip, 1x/wk for 4 wks, begun day 2): 14.3%
% ILS ([5]; 2.0 mg/mouse sc, 1x/wk for 4 wks, begun day 2, + = animals not yet all died): ≥ 264%
% ILS ([5]; 25 mg/kg ip, 1x/wk for 4 wks, begun day 2, + = animals not yet all died): ≥ 100%
% ILS ([5]; 25 mg/kg ip, 2x/wk for 4 wks, begun day 2, + = animals not yet all died): ≥ 100%
% ILS ([5]; 25 mg/kg sc, 1x/wk for 4 wks, begun day 2, + = animals not yet all died): ≥ 100%
% ILS ([5]; 25 mg/kg sc, 2x/wk for 4 wks, begun day 2, + = animals not yet all died): ≥ 100%
% ILS ([5]; 50 mg/kg ip, 1x/wk for 4 wks, begun day 2, + = animals not yet all died): ≥ 100%
% ILS ([5]; 50 mg/kg ip, 2x/wk for 4 wks, begun day 2, + = animals not yet all died): ≥ 100%
% ILS ([5]; 50 mg/kg sc, 1x/wk for 4 wks, begun day 2, + = animals not yet all died): ≥ 100%
% ILS ([5]; 50 mg/kg sc, 2x/wk for 4 wks, begun day 2, + = animals not yet all died): ≥ 100%
% ILS ([5]; 75 mg/kg ip, 1x/wk for 4 wks, begun day 2, + = animals not yet all died): ≥ 100%
% ILS ([5]; 75 mg/kg ip, 2x/wk for 4 wks, begun day 2): 66.6%
% ILS ([5]; 75 mg/kg sc, 1x/wk for 4 wks, begun day 2, + = animals not yet all died): ≥ 100%
% ILS ([5]; 75 mg/kg sc, 2x/wk for 4 wks, begun day 2): 0%
inflammation (various forms of cancer): Inflammation gradually subsides
tumor size (various forms of cancer): tumor size frequently decreases
clinical improvement (various forms of cancer; within several days): marked clinical improvement within several days
mortality ([6]; 1.0 mg/mouse ip): 0%
mortality at 312 h ([6]; 2.0 mg/mouse ip, at day 13, others survived): 60%
mortality at 240 h ([6]; 4.0 mg/mouse ip, at day 10): 100%
mortality at 192 h ([6]; 8.0 mg/mouse ip): 100%
mortality at 96 h ([6]; 16.0 mg/mouse ip, at day 4): 100%
mortality at 24 h ([6]; 20.0 mg/mouse ip): 100%
mortality at 24 h ([6]; 32.0 mg/mouse ip): 100%
mortality at 312 h ([6]; mouse, 100 mg/kg ip, at day 13): 100%
mortality at 264 h ([6]; mouse, 150 mg/kg ip, at day 11): 100%
mortality at 216 h ([6]; mouse, 200 mg/kg ip): 100%
mortality at 216 h ([6]; mouse, 225 mg/kg ip): 100%
mortality at 192 h ([6]; mouse, 250 mg/kg ip): 100%
mortality at 120 h ([6]; mouse, 500 mg/kg ip, at day 5): 100%
mortality at 48 h ([6]; mouse, 750 mg/kg ip, at day 2): 100%
mortality at 24 h ([6]; mouse, 1000 mg/kg ip): 100%

CC(C)(C)CN=C=O [neopentyl isocyanate]
half-life [1]: > 30 min
stability (hydrolysis) [1]: remarkably stable
